Experimental data taken from patent publication US20090232899A1, “Mucoadhesive nanocomposite delivery system” (priority 2004, published 2009).

Key:
[1] = low pH, simulated gastric fluid; cited from earlier work

Protocol for NIH3T3 fibroblast cells: The NIH3T3 fibroblast cells were used for cytotoxicity testing by methyl thiazol-2-YL-2,5-diphenyl tetrazolium bromide (MTT) staining. After seven days, the cell-containing samples were rinsed with serum-free media to remove the unattached cells and were transferred to a new plate. Then, 250 μl MTT solution was added to each sample and incubated for 4 hours to induce MTT formazan formation. Purple formazan was extracted with dimethyl sulfoxide (DMSO), and was used for optical density (OD) measurement with a Thermomax ELISA reader at a wavelength of 540 nm with DMSO as a blank.

Molecule	Stability under the testing conditions, compared with amoxicillin [1]	Viability of fibroblasts, ratio (%) of absorbance of sample group to group without treatment (NT) (NIH3T3 fibroblast cells)
Cc1ncc([N+](=O)[O-])n1CCO [Metronidazole]	greater stability	
Chitosan		90 ± 9%
